The source of these data is patent US20240383892A1, “PARTICLES OF IMIDAZO[4,5-b]PYRIDINE COMPOUND, PHARMACEUTICAL COMPOSITIONS, AND THEIR USE IN TREATING MEDICAL CONDITIONS” (Centrexion Therapeutics Corporation, priority 2023, published 2024).

Holding throughout (format): physicochemical
The nature of data set [1]: Dynamic vapor sorption (hygroscopicity). To be noted: 2 cycles of increasing and decreasing relative humidity at 25° C., FIG. 3. Here is the method:
A dynamic vapor sorption isotherm plot of crystalline 3-(3-methoxy-4-((4-methoxybenzyl)oxy)benzyl)-6-(1-methyl-1H-pyrazol-4-yl)-3H-imidazo[4,5-b]pyridin-2-amine monohydrate Form 3 is provided in FIG. 3. The dynamic vapor sorption isotherm plot results are from the procedure where after a drying stage at 0% relative humidity, compound sample was exposed to 2 cycles of increasing and decreasing relative humidity at 25° C., with steps of 5% relative humidity, where mass of the sample was recorded throughout the experiment.

Data set [2] can be described thus: Stability comparison of crystalline forms: temperature of dehydration. From the text:
Stability of crystalline 3-(3-methoxy-4-((4-methoxybenzyl)oxy)benzyl)-6-(1-methyl-1H-pyrazol-4-yl)-3H-imidazo[4,5-b]pyridin-2-amine monohydrate Form 3 was compared to crystalline 3-(3-methoxy-4-((4-methoxybenzyl)oxy)benzyl)-6-(1-methyl-1H-pyrazol-4-yl)-3H-imidazo[4,5-b]pyridin-2-amine monohydrate Form 1. The physical property analyzed was temperature of dehydration. Crystalline 3-(3-methoxy-4-((4-methoxybenzyl)oxy)benzyl)-6-(1-methyl-1H-pyrazol-4-yl)-3H-imidazo[4,5-b]pyridin-2-amine monohydrate Form 1 is that described in international patent application publication WO 2016/100677.

A short description of data set [3]: Particle size analysis, Malvern Mastersizer 2000. To be noted: dispersant 0.2% (w/v) Igepal in RO water. Here is the method: Particle size analysis was performed on the particles using a Malvern Mastersizer 2000 particle size analyzer equipped with a Hydro2000S sample dispersion unit. Instrument parameters and experimental conditions are set forth below:
A 50 mg±5 mg of sample of particles was weighed and placed in a 20 mL plastic blood dilution vial. Five drops of dispersant (0.2% (w/v) Igepal in RO water) was added to the vial and mixed to a slurry using the flat end of a spatula. Dispersant (20 mL) was then added and stirred with a spatula to begin dispersion. The sample vial was placed onto a magnetic stir plate and stirred for 5 minutes. While stirring, we withdrew an aliquot of the dispersed sample using a transfer pipet and transferred it to the Hydro2000S until an obscuration of 10-30% was obtained. The sample was allowed to recirculate for 5 minutes at 2500 RPM prior to initiating the sample measurement.

SMILES strings stand for the structures.

For the compound `COc1ccc(COc2ccc(Cn3c(N)nc4cc(-c5cnn(C)c5)cnc43)cc2OC)cc1` [Form 3, 3-(3-methoxy-4-((4-methoxybenzyl)oxy)benzyl)-6-(1-methyl-1H-pyrazol-4-yl)-3H-imidazo[4,5-b]pyridin-2-amine monohydrate], the “hygroscopicity (dynamic vapor sorption isotherm)” value in data set [1] is on record as “not hygroscopic”. The compound further had a temperature of dehydration in data set [2] (heated) of 130 °C.

As to `COc1ccc(COc2ccc(Cn3c(N)nc4cc(-c5cnn(C)c5)cnc43)cc2OC)cc1` [Particles Prepared in Part I, 3-(3-methoxy-4-((4-methoxybenzyl)oxy)benzyl)-6-(1-methyl-1H-pyrazol-4-yl)-3H-imidazo[4,5-b]pyridin-2-amine monohydrate], in data set [3], the Particle Size Parameter D10 was 18.6 µm, the Particle Size Parameter D50 was found to be 56.5 µm and the Particle Size Parameter D90 is 131 µm.

On to `COc1ccc(COc2ccc(Cn3c(N)nc4cc(-c5cnn(C)c5)cnc43)cc2OC)cc1` [Form 1, 3-(3-methoxy-4-((4-methoxybenzyl)oxy)benzyl)-6-(1-methyl-1H-pyrazol-4-yl)-3H-imidazo[4,5-b]pyridin-2-amine monohydrate], for which the temperature of dehydration entry in data set [2] (under a stream of nitrogen gas) is recorded as “room temperature”.
